Source: ChEMBL document CHEMBL1151298, “Plant anticancer agents XXIX. Cleomiscosin A from Simaba multiflora, Soulamea soulameoides, and Matayba arborescens” (1984)
Values after ≈ are worked out from the molar mass of the structure shown.

How the values were obtained:
[1] = test system: KB; assay: Cytotoxicity against human KB cells; assay type: functional; settings: read-out: ED50 (the source's name)
[2] = test system: P388; assay: Cytotoxicity against mouse P388 cells; assay type: functional; settings: read-out: ED50 (the source's name)

COc1cc([C@H]2Oc3c(OC)cc4ccc(=O)oc4c3O[C@@H]2CO)ccc1O [CLEOMISCOSIN A]
EC50 [1]: 4.9 µg/mL (≈ 12.7 µM)
EC50 [2]: 3.8 µg/mL (≈ 9.84 µM)
